Reference: US20050119330A1, “Use of antiproliferative agents in the treatment and prevention of pulmonary proliferative vascular diseases” (priority 2003, published 2005)
“And” between values parts separate entries of the source, which are not always exact repeats. Equal values may be shown once.

How the values were obtained:
[1] = system: pneumonectomized, monocrotaline-treated rats; assay: Acute model of pulmonary arterial hypertension (left pneumonectomy, monocrotaline on Day 7); assay type: in vivo, Sprague-Dawley rats; conditions: for right ventricular systolic pressure (RVSP): Day 35; for mean pulmonary arterial pressure (mPAP): measured Day 35; for vascular occlusion score (VOS), 0 to 2: 25 consecutive small pulmonary arteries per rat
Experimental: Methods: On Day, 0, thirty pathogen-free 13-week-old, male Sprague-Dawley rats (350-400 g) were intubated, anesthetized with halothane (0.5%), and then underwent left pneumonectomy via thoracotomy as described in Faul, J. L. et al. (2000) Am. J. Respir. Crit. Care Med. 162:2252-2258; and Nishimura, R. et al., (2001) Am. J. Respir. Crit. Care Med. 163:498-502. On Day 7, rats received a single subcutaneous injection in the right hind limb of the plant alkaloid monocrotaline (60 mg/kg; Sigma, St. Louis, Mo.). Rats that were not subjected to any treatment were also included in the study (“normal” or “N”).
Twenty-four rats received monocrotaline (60 mg/kg s.c.), seven days after pneumonectomy. […] Rats that were not subjected to any treatment were also included in the study (“normal” or “N”). Rats in the control group, PMV (n=6), received vehicle (V) by oral gavage every day, beginning on Day 5.
On Day 35, rats underwent pulmonary artery catheterization for measurements of mean pulmonary artery pressures and right ventricular systolic pressures. Mean arterial, mean pulmonary arterial and right ventricular systolic blood pressures (mPAP and RVSP, respectively) were measured as described by Faul et al. and Nishimura et al. After exsanguination, the right lung, right ventricle and left ventricle plus septum were collected for histology. The organs were weighed and preserved and the RV/LV&S ratios determined. Organs fixed in formalin were embedded in paraffin, cut in 3 micron sections and stained with hematoxylin and eosin, and with elastin-von Geison stain.
The severity of neointimal formation was scored on elastin-van Geison (EVG)-stained lung sections: the absence of neointimal formation equals 0; the presence of neointimal proliferation causing less than 50% luminal narrowing equals 1; luminal narrowing greater than 50% equals 2. Immunohistochemistry was performed on formalin-fixed, paraffin-embedded lung sections using antibodies to α-smooth-muscle actin (Dako, 1:30 dilution, linked to alkaline phosphatase), and CD31, a monoclonal antibody with specificity for endothelial cells lining the vascular lumen (Dako, 1:40 dilution, detected using avidin-biotin-peroxidase method). Samples of right lung were immediately placed in 2.5% paraformaldehyde and routinely processed for transmission electron microscopy. Reverse-transcription PCR was used to amplify portions of the rat endothelial nitric oxide synthase gene (eNOS, GenBank U02534) and actin B (GenBank V01217) from rat lung. Primer sequences for eNOS were: 5′-[…]-3′ (SEQ ID NO:1) and 5′-[…]-3′ (SEQ ID NO:2). Five micrograms of total lung RNA were reverse-transcribed and amplified by PCR as described in Aoki, Y., et al. (1997) Am. J. Physiol. 272:L272-284. Endothelial NOS protein (60 μg) was analyzed by Western immunoblotting as described in Zhao, G. et al. (2000) Am. J. Physiol. 279:L958-L966, using anti-eNOS primary antibody (Santa Cruz sc-8311).

[2] = system: pneumonectomized, monocrotaline-treated rats; assay: Chronic model of pulmonary arterial hypertension (monocrotaline four weeks after pneumonectomy), rescue treatment; assay type: in vivo
Experimental: Methods: Rats were treated as described in Example 1, except that monocrotaline was administered four weeks after pneumonectomy. Pulmonary hypertension developed at Week 8 and increased in severity until death at Week 13. […] Hemodynamic measurements were performed on control and treated rats in order to determine mean arterial pressures and pressures at the right ventricle.
A quantitative analysis of neointimal luminal obstruction on 25 consecutive small pulmonary arteries from each rat in Group N, PMV0w, PMV2w, PMS2w, PMS6w, and PMS13w was performed (FIGS. 10A-10D). Histological samples were prepared and stained using Elastin-van-Geison (EVG) stain, ×600. Vessels were assessed for neointimal proliferative lesions and scored: Grade 0 for no evidence of neointimal formation, Grade 1 for less than 50% luminal occlusion, Grade 2 for >50% luminal occlusion.

[3] = system: pneumonectomized, monocrotaline treated rats; conditions: Faul et al. 2000; Nishimura 2001; cited from earlier work
[4] = Group PMS2w: two weeks of treatment
[5] = Group PMS6w: 6 weeks of treatment
[6] = after 13 weeks of simvastatin treatment

| Structure (SMILES) | right ventricular systolic pressure (RVSP) ([1]; Group PMS5-14: 2 mg/kg/day oral gavage Days 5-14) [mm Hg] | mean pulmonary arterial pressure (mPAP) ([1]; Group PMS5-14: simvastatin 2 mg/kg/day oral gavage Days 5-14) [mm Hg] | vascular occlusion score (VOS), 0 to 2 ([1]; Group PMS5-14) | right ventricular systolic pressure (RVSP) ([1]; Group PMS5-35: 40 mg/kg/day oral gavage Days 5-35) [mm Hg] | mean pulmonary arterial pressure (mPAP) ([1]; Group PMS5-35: simvastatin 40 mg/kg/day oral gavage Days 5-35) | vascular occlusion score (VOS), 0 to 2 ([1]; Group PMS5-35) | right ventricular systolic pressure (RVSP) ([1]; Group PMS15-35: 40 mg/kg/day oral gavage Days 15-35) [mm Hg] | mean pulmonary arterial pressure (mPAP) ([1]; Group PMS15-35: simvastatin 40 mg/kg/day oral gavage Days 15-35) [mm Hg] | vascular occlusion score (VOS), 0 to 2 ([1]; Group PMS15-35) | mean pulmonary arterial pressure (mPAP) ([2]; Group PMS2w: 2 mg/kg/day for two weeks from Week 11) [mm Hg] | right ventricular systolic pressure (RVSP) [2, 4] [mmHg] | vascular occlusion score (VOS), 0 to 2 [2, 4] | mean pulmonary arterial pressure (mPAP) ([2]; Group PMS6w: 2 mg/kg/day for 6 weeks from Week 11) [mm Hg] | right ventricular systolic pressure (RVSP) [2, 5] [mmHg] | vascular occlusion score (VOS), 0 to 2 [2, 5] | vascular occlusion score (VOS), 0 to 2 ([2]; Group PMS13w: 13 weeks of treatment) | mean pulmonary arterial pressure (mPAP) [2, 6] [mm Hg] | right ventricular systolic pressure (RVSP) [2, 6] [mmHg] | survival ([2]; simvastatin 2 mg/kg/day oral gavage from Week 11, no mortality up to Week 23, vehicle 0% survival at Week 15) [%] | development of pulmonary arterial hypertension and neointimal formation [3] |
| --- | --- | --- | --- | --- | --- | --- | --- | --- | --- | --- | --- | --- | --- | --- | --- | --- | --- | --- | --- | --- |
| CCC(C)(C)C(=O)O[C@H]1C[C@@H](C)C=C2C=C[C@H](C)[C@H](CC[C@@H]3C[C@@H](O)CC(=O)O3)[C@H]21 [simvastatin] | 66±12 | 44±4 | 0.78±0.40 | 37±4 | 27±3 mm Hg and 27 mm Hg | 1.5 and 0.59±0.46 | 54±10 | 38±3 | 0.93±0.38 | 36±2 | 53±7 | 1.34 | 24±3 | 34±3 | 0.83 | 0.65 | 22±3 | 30±3 | 100 | – |
| CC(C)[C@]12O[C@H]1[C@@H]1O[C@]13[C@]1(O[C@H]1C[C@H]1C4=C(CC[C@@]13C)C(=O)OC4)[C@@H]2O [triptolide] | – | – | – | – | – | – | – | – | – | – | – | – | – | – | – | – | – | – | – | could inhibit the development of pulmonary arterial hypertension and neointimal formation |
